Source: patent US20210300936A1, “PYRAZOLOTRIAZOLOPYRIMIDINE DERIVATIVES AS A2A RECEPTOR ANTAGONIST” (BEIGENE, LTD., priority 2018, published 2021)

The molecules below were run against human A2A receptor (A2AR) (Homo sapiens, UniProt P29274) (assay: Luciferase reporter assay (HEK293-A2AR-luc2p/CRE/Hygro cells, 3 nM CGS21680)). Conditions: 3 nM CGS21680, 5 h incubation.
Sequence of human A2A receptor (A2AR) (P29274 whole entry): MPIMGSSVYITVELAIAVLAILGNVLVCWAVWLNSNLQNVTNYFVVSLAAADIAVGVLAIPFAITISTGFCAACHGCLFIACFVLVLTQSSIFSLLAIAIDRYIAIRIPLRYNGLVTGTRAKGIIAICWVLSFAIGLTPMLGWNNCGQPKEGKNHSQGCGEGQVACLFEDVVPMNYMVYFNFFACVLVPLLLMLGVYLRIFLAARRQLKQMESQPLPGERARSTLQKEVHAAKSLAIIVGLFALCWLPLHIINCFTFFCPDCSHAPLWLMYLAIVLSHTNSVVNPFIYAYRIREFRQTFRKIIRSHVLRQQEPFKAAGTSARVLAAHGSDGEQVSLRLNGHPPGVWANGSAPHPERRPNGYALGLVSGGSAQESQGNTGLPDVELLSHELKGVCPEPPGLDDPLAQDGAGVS
Format: cell-based
Procedure, shortened: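 HEK293 cells stably expressing A2AR with a CRE-luc2P reporter were seeded in 1% FBS with 1 U/mL adenosine deaminase. After 18 h, cells got 3 nM CGS21680 plus antagonist at 0.1–10000 nM for 5 h, followed by a luciferase readout. IC50 is relative to the 3 nM CGS21680 signal, set as 100%.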
An IC50 of 1.6 nM was found for `Nc1nc2c(cnn2C(C(=O)N2CCN(c3ccc(F)cc3F)CC2)c2ccccc2)c2nc(-c3ccco3)nn12` (stereo not drawn) [Compound A48, 2-(5-amino-2-(furan-2-yl)-7H-pyrazolo[4,3-e][1,2,4]triazolo[1,5-c]pyrimidin-7-yl)-1-(4-(2,4-difluorophenyl)piperazin-1-yl)-2-phenylethan-1-one] in this work. An IC50 of 3.2 nM was found for `Nc1nc2c(cnn2C(C(=O)N2CCN(c3ccc(F)cc3)CC2)c2ccccc2)c2nc(-c3ccco3)nn12` (stereo not drawn) [Compound A49, 2-(5-amino-2-(furan-2-yl)-7H-pyrazolo[4,3-e][1,2,4]triazolo[1,5-c]pyrimidin-7-yl)-1-(4-(4-fluorophenyl)piperazin-1-yl)-2-phenylethan-1-one] in this work. An IC50 of 1.5 nM was found for `COCCOc1ccc(N2CCN(C(=O)C(c3ccccc3)n3ncc4c3nc(N)n3nc(-c5ccco5)nc43)[C@H](C)C2)cc1` (stereo partly drawn) [Compound A50, 2-(5-amino-2-(furan-2-yl)-7H-pyrazolo[4,3-e][1,2,4]triazolo[1,5-c]pyrimidin-7-yl)-1-((R)-4-(4-(2-methoxyethoxy)phenyl)-2-methylpiperazin-1-yl)-2-phenylethan-1-one] in this work. An IC50 of 4.8 nM was found for `CCCC(C(=O)N1CCN(c2ccc(OCCOC)c(F)c2F)CC1)n1ncc2c1nc(N)n1nc(-c3ccco3)nc21` (stereo not drawn) [Compound A51, 2-(5-amino-2-(furan-2-yl)-7H-pyrazolo[4,3-e][1,2,4]triazolo[1,5-c]pyrimidin-7-yl)-1-(4-(2,3-difluoro-4-(2-methoxyethoxy)phenyl)piperazin-1-yl)pentan-1-one] in this work. An IC50 of 8.7 nM was found for `COCCOc1ccc(N2CCN(C(=O)C(c3ccccc3)n3ncc4c3nc(N)n3nc(-c5ccco5)nc43)[C@@H](C)C2)cc1` (stereo partly drawn) [Compound A52, 2-(5-amino-2-(furan-2-yl)-7H-pyrazolo[4,3-e][1,2,4]triazolo[1,5-c]pyrimidin-7-yl)-1-((S)-4-(4-(2-methoxyethoxy)phenyl)-2-methylpiperazin-1-yl)-2-phenylethan-1-one] in this work. An IC50 of 5 nM was found for `CCCC(C(=O)N1CCN(c2ccc(OCCOC)c(F)c2)CC1)n1ncc2c1nc(N)n1nc(-c3ccco3)nc21` (stereo not drawn) [Compound A53, 2-(5-amino-2-(furan-2-yl)-7H-pyrazolo[4,3-e][1,2,4]triazolo[1,5-c]pyrimidin-7-yl)-1-(4-(3-fluoro-4-(2-methoxyethoxy)phenyl)piperazin-1-yl)pentan-1-one] in this work. An IC50 of 4.9 nM was found for `CCCC(C(=O)N1CCN(c2cc(F)c(OCCOC)cc2F)CC1)n1ncc2c1nc(N)n1nc(-c3ccco3)nc21` (stereo not drawn) [Compound A54, 2-(5-amino-2-(furan-2-yl)-7H-pyrazolo[4,3-e][1,2,4]triazolo[1,5-c]pyrimidin-7-yl)-1-(4-(2,5-difluoro-4-(2-methoxyethoxy)phenyl)piperazin-1-yl)pentan-1-one] in this work. An IC50 of 2.3 nM was found for `COCCOc1ccc(N2CCN(C(=O)C(c3ccccc3)n3ncc4c3nc(N)n3nc(-c5ccco5)nc43)CC2)cc1F` (stereo not drawn) [Compound A55, 2-(5-amino-2-(furan-2-yl)-7H-pyrazolo[4,3-e][1,2,4]triazolo[1,5-c]pyrimidin-7-yl)-1-(4-(3-fluoro-4-(2-methoxyethoxy)phenyl)piperazin-1-yl)-2-phenylethan-1-one] in this work. An IC50 of 1.7 nM was found for `COCCOc1ccc(N2CCN(C(=O)C(c3ccccc3)n3ncc4c3nc(N)n3nc(-c5ccco5)nc43)CC2)c(F)c1F` (stereo not drawn) [Compound A56, 2-(5-amino-2-(furan-2-yl)-7H-pyrazolo[4,3-e][1,2,4]triazolo[1,5-c]pyrimidin-7-yl)-1-(4-(2,3-difluoro-4-(2-methoxyethoxy)phenyl)piperazin-1-yl)-2-phenylethan-1-one] in this work. An IC50 of 5.3 nM was found for `COCCOc1cc(F)c(N2CCN(C(=O)C(c3ccccc3)n3ncc4c3nc(N)n3nc(-c5ccco5)nc43)CC2)cc1F` (stereo not drawn) [Compound A57, 2-(5-amino-2-(furan-2-yl)-7H-pyrazolo[4,3-e][1,2,4]triazolo[1,5-c]pyrimidin-7-yl)-1-(4-(2,5-difluoro-4-(2-methoxyethoxy)phenyl)piperazin-1-yl)-2-phenylethan-1-one] in this work. An IC50 of over 10000 nM was found for `COCCOc1ccc(N2CCN(C(=O)C(C3CCNCC3)n3ncc4c3nc(N)n3nc(-c5ccco5)nc43)CC2)cc1` (stereo not drawn) [Compound A58, 2-(5-amino-2-(furan-2-yl)-7H-pyrazolo[4,3-e][1,2,4]triazolo[1,5-c]pyrimidin-7-yl)-1-(4-(4-(2-methoxyethoxy)phenyl)piperazin-1-yl)-2-(piperidin-4-yl)ethan-1-one] in this work. An IC50 of 18.4 nM was found for `COCCOc1ccc(N2CC(C)N(C(=O)C(c3ccccc3)n3ncc4c3nc(N)n3nc(-c5ccco5)nc43)C(C)C2)cc1` (stereo not drawn) [Compound A59, 2-(5-amino-2-(furan-2-yl)-7H-pyrazolo[4,3-e][1,2,4]triazolo[1,5-c]pyrimidin-7-yl)-1-(4-(4-(2-methoxyethoxy)phenyl)-2,6-dimethylpiperazin-1-yl)-2-phenylethan-1-one] in this work. An IC50 of over 10000 nM was found for `COCCOc1ccc(N2CCN(C(=O)C(C3CCN(C)CC3)n3ncc4c3nc(N)n3nc(-c5ccco5)nc43)CC2)cc1` (stereo not drawn) [Compound A60, 2-(5-amino-2-(furan-2-yl)-7H-pyrazolo[4,3-e][1,2,4]triazolo[1,5-c]pyrimidin-7-yl)-1-(4-(4-(2-methoxyethoxy)phenyl)piperazin-1-yl)-2-(1-methylpiperidin-4-yl)ethan-1-one] in this work. An IC50 of 0.5 nM was found for `Nc1nc2c(cnn2C(C(=O)N2CCN(c3ccc(OCCO)cc3)CC2)c2ccccc2)c2nc(-c3ccco3)nn12` (stereo not drawn) [Compound A61, 2-(5-amino-2-(furan-2-yl)-7H-pyrazolo[4,3-e][1,2,4]triazolo[1,5-c]pyrimidin-7-yl)-1-(4-(4-(2-hydroxyethoxy)phenyl)piperazin-1-yl)-2-phenylethan-1-one] in this work. An IC50 of 1.3 nM was found for `CC(O)COc1ccc(N2CCN(C(=O)C(c3ccccc3)n3ncc4c3nc(N)n3nc(-c5ccco5)nc43)CC2)cc1` (stereo not drawn) [Compound A62, 2-(5-amino-2-(furan-2-yl)-7H-pyrazolo[4,3-e][1,2,4]triazolo[1,5-c]pyrimidin-7-yl)-1-(4-(4-(2-hydroxypropoxy)phenyl)piperazin-1-yl)-2-phenylethan-1-one] in this work. An IC50 of 6.2 nM was found for `COCCOc1ccc(N2CCN(C(=O)C(C)(c3ccccc3)n3ncc4c3nc(N)n3nc(-c5ccco5)nc43)CC2)cc1` (stereo not drawn) [Compound A63, 2-(5-amino-2-(furan-2-yl)-7H-pyrazolo[4,3-e][1,2,4]triazolo[1,5-c]pyrimidin-7-yl)-1-(4-(4-(2-methoxyethoxy)phenyl)piperazin-1-yl)-2-phenylpropan-1-one] in this work. An IC50 of 4.8 nM was found for `COCCOc1ccc(N2CCN(C(=O)C(C)(c3ccccc3)n3ncc4c3nc(N)n3nc(-c5ccco5)nc43)CC2)c(F)c1` (stereo not drawn) [Compound A64, 2-(5-amino-2-(furan-2-yl)-7H-pyrazolo[4,3-e][1,2,4]triazolo[1,5-c]pyrimidin-7-yl)-1-(4-(2-fluoro-4-(2-methoxyethoxy)phenyl)piperazin-1-yl)-2-phenylpropan-1-one] in this work. An IC50 of 17.5 nM was found for `COCCOc1ccc(N2CCN(C(=O)[C@](C)(c3ccccc3)n3ncc4c3nc(N)n3nc(-c5ccco5)nc43)CC2)c(F)c1` [Compound A64a, (S)-2-(5-amino-2-(furan-2-yl)-7H-pyrazolo[4,3-e][1,2,4]triazolo[1,5-c]pyrimidin-7-yl)-1-(4-(2-fluoro-4-(2-methoxyethoxy)phenyl)piperazin-1-yl)-2-phenylpropan-1-one] in this work.
